These results are taken from PMC9405123, “Design, Synthesis and Mechanistic Studies of Novel Isatin-Pyrazole Hydrazone Conjugates as Selective and Potent Bacterial MetAP Inhibitors” (Antibiotics, 2022).

Converted amounts (≈) assume the structure as drawn. Read-outs that look alike come from different tables or passages of the source.

One data set relates to EcMetAP1. Set-up: method as in PMID 15506752. To be noted: Co(II) as the cofactor; cited from earlier work.
The subject of the next data set is SH34. The data set can be described thus: MIC on environmental MDR isolate (microdilution). To be noted: Serratia marcescens.
The subject of data set [1] is S. aureus. Nature of the data set: Growth inhibition screening (broth dilution). The note with it: Staphylococcus aureus. The class given is cell-based, Staphylococcus aureus.
In another data set the test system is HK1. Nature of the data set: MIC on environmental MDR isolate (microdilution). In general terms: Dilution methods test growth across graded concentrations, often in twofold steps.
The subject of data set [2] is E. coli. Nature of the data set: Growth inhibition screening (broth dilution). To be noted: Escherichia coli. The format is cell-based, Escherichia coli. The gist of the method:
(§1)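 Standard NCCLS broth dilution in nutrient broth, with compounds dissolved in DMSO and tested at a final 250 µg/mL per well. About 2.5 × 10^5 cells/mL were inoculated and incubated overnight at 37 °C. Growth was read as culture turbidity at 590 nm.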

The next data set concerns JST68. Nature of the data set: MIC on environmental MDR isolate (microdilution). The note with it: Escherichia coli.
In a further data set the test system is LG24. The data set can be described thus: MIC on environmental MDR isolate (microdilution). To be noted: Escherichia coli.
Another data set has as its system LG20. Nature of the data set: MIC on environmental MDR isolate (microdilution). To be noted: Enterobacter, isolate LG20 Enterobacter sp.
A further data set deals with SD5. The data set can be described thus: MIC on environmental MDR isolate (microdilution). To be noted: Escherichia coli, isolate SD5 E. coli.
The test system of another data set is LG51. The data set can be described thus: MIC on environmental MDR isolate (microdilution). To be noted: Escherichia coli.
In a further data set the test system is LG71. Nature of the data set: MIC on environmental MDR isolate (microdilution). The note with it: Enterobacter cloacae.
In data set [3] the test system is E. faecalis. The data set can be described thus: Minimum inhibitory concentration (broth dilution). The format is cell-based. To be noted: Enterococcus faecalis, alone.
For the next data set, the system named is JST28. Nature of the data set: MIC on environmental MDR isolate (microdilution). To be noted: Escherichia coli.
The subject of data set [4] is E. coli. The data set can be described thus: Minimum inhibitory concentration (broth dilution). The format is cell-based, Escherichia coli. To be noted: alone.
The test system of data set [5] is K. pneumoniae. Nature of the data set: Combination study with AMP or CIP.
Data set [6] concerns K. pneumoniae. Nature of the data set: Growth inhibition screening (broth dilution). The note with it: Klebsiella pneumoniae. The class given is cell-based, Klebsiella pneumonia. The method in brief:
as §1

The next data set has as its system SD6. The data set can be described thus: MIC on environmental MDR isolate (microdilution). The note with it: Escherichia coli, isolate SD6 E. coli.
Data set [7] has as its system E. faecalis. Nature of the data set: Combination study with AMP or CIP.
Another data set concerns HK43. Nature of the data set: MIC on environmental MDR isolate (microdilution). The note with it: Exiguobacterium mexicanum.
The test system of the next data set is HK32. Nature of the data set: MIC on environmental MDR isolate (microdilution). The note with it: Enterobacter cloacae.
For another data set, the system named is HK41. Nature of the data set: MIC on environmental MDR isolate (microdilution). To be noted: Enterobacter cloacae.
The subject of another data set is JST78. Nature of the data set: MIC on environmental MDR isolate (microdilution). The note with it: Escherichia coli.
The test system of data set [8] is P. aeruginosa. The data set can be described thus: Growth inhibition screening (broth dilution). The format is cell-based, Pseudomonas aeruginosa. To be noted: Pseudomonas aeruginosa. The gist of the method:
as §1

A further data set relates to SH28. Nature of the data set: MIC on environmental MDR isolate (microdilution). The note with it: Aeromonas caviae.
Data set [9] relates to B. subtilis. The data set can be described thus: Growth inhibition screening (broth dilution). The class given is cell-based, Bacillus subtilis. The note with it: Bacillus subtilis. The method in brief:
as §1

The subject of data set [10] is P. aeruginosa. Nature of the data set: Combination study with AMP or CIP. The note with it: combination PS9 + AMP.
In data set [11] the test system is E. coli. Nature of the data set: Combination study with AMP or CIP. To be noted: combination PS9 + AMP.
Data set [12] deals with B. subtilis. The data set can be described thus: Minimum inhibitory concentration (broth dilution). The format is cell-based. To be noted: Bacillus subtilis, alone.
For a further data set, the system named is JST63. Nature of the data set: MIC on environmental MDR isolate (microdilution).
Data set [13] concerns S. aureus. The data set can be described thus: Combination study with AMP or CIP.
Data set [14] concerns E. faecalis. The data set can be described thus: Growth inhibition screening (broth dilution). The format is cell-based, Enterococcus faecalis. The note with it: Enterococcus faecalis. The method in brief:
as §1

A further data set concerns HK91. Nature of the data set: MIC on environmental MDR isolate (microdilution). To be noted: Ralstonia.
Data set [15] has as its system S. aureus. The data set can be described thus: Minimum inhibitory concentration (broth dilution). The note with it: Staphylococcus aureus, alone. The class given is cell-based.
Data set [16] deals with P. aeruginosa. The data set can be described thus: Minimum inhibitory concentration (broth dilution). The note with it: Pseudomonas aeruginosa, alone. The class given is cell-based.
The subject of the next data set is JST71. Nature of the data set: MIC on environmental MDR isolate (microdilution). To be noted: Enterobacter.
A further data set has as its system JST61. Nature of the data set: MIC on environmental MDR isolate (microdilution). To be noted: Pantoea agglomerans.
The test system of data set [17] is K. pneumoniae. The data set can be described thus: Minimum inhibitory concentration (broth dilution). The format is cell-based, Klebsiella pneumonia. The note with it: Klebsiella pneumoniae, alone, read-out: MIC.
The subject of the next data set is LG33. The data set can be described thus: MIC on environmental MDR isolate (microdilution). The note with it: Enterobacter.
The next data set has as its system LG1. The data set can be described thus: MIC on environmental MDR isolate (microdilution).
The subject of data set [18] is human red blood cells (hRBCs). The data set can be described thus: Hemolytic activity. The format is cell-based. On the procedure: The compound PS9 was evaluated for hemolytic effect on human RBCs. In brief, RBCs suspension 10% (v/v) cleaned with 1 × PBS and resuspended again in 1 × PBS (pH 7.4). […] The samples were centrifuged and absorbance of the supernatant was taken at 415 nm to obtain the percentage of RBCs lysis. Triton X-100 with 1% (v/v) was used as a positive control. Percentage of RBCs lysis was calculated as:% RBCs lysis = (OD415nm sample − OD415nm PBS)/(OD415nm Triton X-100 1% − OD415nm PBS)(1)

The IC50 is the concentration that inhibits the measured activity by half. For the compound `O=C(Nc1nccs1)C(=O)NC1CCCC1` [A, N1-cyclopentyl-N2-(thiazol-2-yl)oxalamide], in the data set on EcMetAP1, the IC50 is 67 nM.
One may read the MIC as the least concentration at which growth counts as inhibited. As usually defined, the inhibition is the relative decrease from the control value, in per cent. Higher therefore signals a strong effect. For the compound `CC1(C)S[C@@H]2[C@H](NC(=O)[C@H](N)c3ccccc3)C(=O)N2[C@H]1C(=O)O` [AMP, ampicillin, reference compound], the MIC is 8 µg/mL (≈ 22.9 µM) with SH34; 256 µg/mL (≈ 733 µM) against HK1; 64 µg/mL (≈ 183 µM) against JST68; under 2 µg/mL in the data set with LG24; 32 µg/mL (≈ 91.6 µM) against LG20; 32 µg/mL (≈ 91.6 µM) in the data set on SD5. For the same compound, the minimum inhibitory concentration (MIC) against LG51 was determined as 1020 µg/mL (≈ 2930 µM); with LG71, 512 µg/mL (≈ 1470 µM); in the data set on E. faecalis [3], 16 µg/mL (≈ 45.8 µM); in the data set on JST28, 1020 µg/mL (≈ 2930 µM); in the data set with E. coli [4] (Escherichia coli, read-out: MIC) it was 1 µg/mL (≈ 2.86 µM); against E. coli [4], 1 µg/mL (≈ 2.86 µM). Also, the minimal inhibitory concentration (MIC) against SD6 was 1000 µg/mL (≈ 2860 µM); against HK43, 1020 µg/mL (≈ 2930 µM); with HK32 it was 1020 µg/mL (≈ 2930 µM); against HK41, 256 µg/mL (≈ 733 µM); in the data set on JST78, over 1020 µg/mL; against SH28, 16 µg/mL (≈ 45.8 µM). For the same compound, the MIC with B. subtilis [12] stood at 0.25 µg/mL (≈ 0.715 µM); with JST63 it was 128 µg/mL (≈ 366 µM); with HK91 it was 8 µg/mL (≈ 22.9 µM); in the data set on S. aureus [15], 0.25 µg/mL (≈ 0.715 µM); against P. aeruginosa [16], 1 µg/mL (≈ 2.86 µM); in the data set with JST71, 1020 µg/mL (≈ 2930 µM). Moreover, the MIC in the data set with JST61 is 128 µg/mL (≈ 366 µM); in the data set on K. pneumoniae [17], 2 µg/mL (≈ 5.72 µM); against LG33, 8 µg/mL (≈ 22.9 µM). The inhibition at 250 µg/mL in the data set on S. aureus [1], in the data set with E. coli [2], with K. pneumoniae [6], with P. aeruginosa [8], in the data set with B. subtilis [9] and with E. faecalis [14] was 100% throughout. Besides, the “MIC in Combination” value is 0.25 µg/mL in the data set with K. pneumoniae [5] (combination PS6 + AMP); 0.5 µg/mL in the data set on K. pneumoniae [5] (combination PS9 + AMP); 0.50 µg/mL in the data set with E. faecalis [7] (combination PS6 + AMP); 0.5 µg/mL in the data set on E. faecalis [7] (combination PS9 + AMP); 0.25 µg/mL with P. aeruginosa [10]; 0.25 µg/mL with E. coli [11]. For the same compound, the “MIC in Combination” value with S. aureus [13] (combination PS6 + AMP) and in the data set with S. aureus [13] (combination PS9 + AMP) was 0.0625 µg/mL throughout.
As to `CO/N=C(\C(=O)N[C@@H]1C(=O)N2C(C(=O)O)=C(COC(C)=O)CS[C@H]12)c1csc(N)n1` [CTX, cefotaxime], the minimum inhibitory concentration (MIC) with SH34 was found to be 8 µg/mL (≈ 17.6 µM); in the data set with HK1, 128 µg/mL (≈ 281 µM); against JST68 it was 512 µg/mL (≈ 1120 µM); against LG24 it was 64 µg/mL (≈ 141 µM); with LG20, 32 µg/mL (≈ 70.3 µM); against SD5 it was 1000 µg/mL (≈ 2200 µM). Further, the MIC came to 64 µg/mL (≈ 141 µM) against LG51; 1020 µg/mL (≈ 2250 µM) in the data set with LG71; 8 µg/mL (≈ 17.6 µM) in the data set on JST28; 1000 µg/mL (≈ 2200 µM) with SD6; 1020 µg/mL (≈ 2250 µM) in the data set with HK43; 256 µg/mL (≈ 562 µM) in the data set on HK32. In addition, the minimum inhibitory concentration (MIC) against HK41 was 32 µg/mL (≈ 70.3 µM); with JST78, 128 µg/mL (≈ 281 µM); with SH28, under 2 µg/mL; in the data set with JST63, 128 µg/mL (≈ 281 µM); with HK91, 8 µg/mL (≈ 17.6 µM); in the data set on LG1 it was 16 µg/mL (≈ 35.1 µM). In addition, the minimal inhibitory concentration (MIC) in the data set on JST71 was found to be 1020 µg/mL (≈ 2250 µM); against JST61, 256 µg/mL (≈ 562 µM); in the data set on LG33, 8 µg/mL (≈ 17.6 µM).
Triton-X 100 [reference compound]: in [18], the hemolysis worked out at 100%.
